Test results reported in article PMC11790958, “Molecular mechanism of condensin I activation by KIF4A” (The EMBO Journal, 2024).
Residues, ends and D or L forms follow the SMILES beside them. No end group written: not given here. *: point of attachment. 5FAM = O=C1OC2(c3ccc(O)cc3Oc3cc(O)ccc32)c2ccc(C(=O)*)cc21; 5‑FAM = 5-carboxyfluorescein label

Assays:
NCAPG [1] = biological target: T1, NCAPG (Homo sapiens, UniProt Q9BPX3); test: Fluorescence polarisation binding assay of 5-FAM peptides with NCAPG; conditions: FP, 100 nM 5-FAM peptide; Kd not fit
T1 construct: ystrep (Strep tag); made in house; host or cells: Sf9 insect cells (baculovirus)
Procedure: (§1) Fluorescence polarisation binding assays were performed by mixing 100 nM of 5-FAM labelled peptide (Reagents and Tools Table) with indicated concentration of protein in FP buffer (20 mM HEPES pH 8, 150 mM KCl, 2.5 mM MgCl, 5% glycerol, 1 mM DTT) and incubated at room temperature for 15 min before reading the plate with a POLARstar Omega plate reader (BMG). The plate was read three times at 5 min intervals to ensure samples reached equilibrium and three technical replicates were performed, setting up a new plate, with distinct protein aliquot in each case. Data was analysed and plotted in Graphpad Prism and Kd fit using the following: FP=FPmax/2[Pep]([C]+[Pep]+Kd)−([C]+[Pep]+Kd)^2−4.[C].[Pep] Where [C] and [Pep] are the concentration, in μM, of condensin and 5-FAM labelled peptide respectively, FPmax the maximum change in fluorescence polarisation in mP and Kd is the equilibrium dissociation constant. Fit curves are plotted, with standard deviation.

CI NdelH, D2delC = test: Fluorescence polarisation competition assay, 5-FAM NCAPH peptide and CI NdelH, D2delC; format: binding, human; conditions: 100 nM 5-FAM-NCAPH55-77 with 4 μM CID2ΔC,NΔH
Procedure: FP competition assays were performed for NCAPD2 peptide, using a fixed concentration of 100 nM of F-NCAPD2-C1376-1398 and 6 μM of NCAPG, in the presence or absence of 10 μM KIF4A WT1206-1228 or KIF4A Mut1206-1228 peptide. Similar assays were performed for NCAPH2 peptide, using a fixed concentration of 100 nM of F-N-NCAPH55-77 and 4 μM CI NdelH, D2delC, in the presence or absence of 100 μM of KIF4A WT1206-1228 or KIF4A Mut1206-1228 peptide.
(§2) Background was determined by measuring 100 nM of F-NCAPD2-C1376-1398 or F-N-NCAPH55-77 in the presence of peptide buffer (20 mM HEPES pH 8), KIF4A WT1206-1228 or KIF4A Mut1206-1228 peptide, and subtracted from each measurement. Assay was performed with three technical repeats, setting up a new plate with distinct protein aliquot each time, reading the plate three times to ensure equilibrium. Data analysed and plotted using GraphPad Prism.

[2] = biological target: T2, CID2ΔC (condensin I lacking NCAPD2 C-terminal region) (Homo sapiens, UniProt Q9BPX3); test: Fluorescence polarisation binding assay of 5-FAM peptides with CID2ΔC; conditions: FP, 100 nM 5-FAM peptide titrated with CID2ΔC, three technical replicates, ± standard error
T2 construct: made in house; host or cells: Sf9 insect cells (baculovirus)
Procedure: as §1

condensin I [3] = test: ATPase activity assay (EnzCheck phosphate assay), basal; format: biochemical, human; conditions: for effect of peptide on ATPase activity of CI: 50 nM CI
Procedure: ATPase assays were performed based on the method described previously (Voulgaris and Gligoris, [2019]) using the EnzCheck phosphate assay kit (Invitrogen). Condensin I complexes were used at a final concentration of 50 nM, while HAWK subunits were used at 100 nM and peptides were used at 50 μM. Basal ATPase assays were performed with final salt concentration of 100 mM KCl. DNA titrations were performed with 50 bp dsDNA annealed by heating to 98 degrees and slowly cooling in annealing buffer (10 mM Tris pH 7.5, 50 mM NaCl, 1 mM EDTA).
Plate was read with a POLARstar Omega plate reader (BMG).

NCAPG [4] = biological target: T1, NCAPG; test: Fluorescence polarisation competition assay, 5-FAM NCAPD2 peptide and NCAPG; format: binding; conditions: 100 nM 5-FAM-NCAPD2_1376-1398, 10 μM competing peptide, mean ± SD
Procedure: […] Similar assays were performed for NCAPH2 peptide, using a fixed concentration of 100 nM of F-N-NCAPH55-77 and 4 μM CI NdelH, D2delC, in the presence or absence of 100 μM of KIF4A WT1206-1228 or KIF4A Mut1206-1228 peptide.
as §2

condensin I [5] = test: Single-molecule loop extrusion assay, loop extrusion rate; format: biochemical, human; conditions: without flow, 0.75 nM-3 nM protein, peptide at 1000x
Procedure: Real-time imaging of the loop extrusion by condensin I was carried out in the aforementioned flow cells as follows. The channel was washed with T50 buffer (40 mM Tris-HCl pH 8.0, 50 mM NaCl, 0.2 mM EDTA), incubated with 1 µM Streptavidin in T50 buffer for 2 min and incubated with 5 mg/ml BSA in T50 buffer for 5 min to further reduce unspecific binding of proteins to the surface. The excess Streptavidin and BSA were washed thoroughly with T50 buffer. Lambda DNA biotinylated at both ends was introduced to the channel at a flow rate of 2 µl/min facilitating surface attachment through the streptavidin–biotin binding. […]
ROIs with a DNA strand that formed a loop were cropped and saved in TIFF format for further analysis. […] The kymographs were built by summing the fluorescence intensity for 11 pixels along the line centred around the DNA axis from the median filtered images. […]
For the determination of the loop extrusion rate, each line in the kymograph was split into three regions: “Up”, “Loop” and “Down” (Fig. 4D). For this, first the loop region was determined as follows: Using the “find_peaks” function from the package signal from the Python module scipy local intensity maxima in each line of the kymograph was determined. […] The loop extrusion rate in Fig. 4G was determined by fitting a linear function f(x) = kx + c to the initial 5 s of the loop growth curve. […]

condensin I [6] = test: Single-molecule loop extrusion assay, fraction of looped DNA; format: biochemical, human; conditions: for fraction of looped DNA: 0.5 nM condensin I WT, peptide at 1000x
Procedure: Real-time imaging of the loop extrusion by condensin I was carried out in the aforementioned flow cells as follows. The channel was washed with T50 buffer (40 mM Tris-HCl pH 8.0, 50 mM NaCl, 0.2 mM EDTA), incubated with 1 µM Streptavidin in T50 buffer for 2 min and incubated with 5 mg/ml BSA in T50 buffer for 5 min to further reduce unspecific binding of proteins to the surface. The excess Streptavidin and BSA were washed thoroughly with T50 buffer. Lambda DNA biotinylated at both ends was introduced to the channel at a flow rate of 2 µl/min facilitating surface attachment through the streptavidin–biotin binding. The flow was adjusted and kept constant with a syringe pump attached to the outlet of the flow cell. Excess DNA was washed thoroughly with T50 buffer.
The surface attached DNA molecules were imaged in the imaging buffer (40 mM Tris-HCl pH 7.5, 2 mM Trolox, 30 mM D-glucose, 50 mM Potassium Glutamate (L-Glutamic acid monopotassium salt monohydrate), 2.5 mM MgCl2, 1 mg/ml BSA, 1 mM TCEP, 2.5 mM ATP, 100 nM Sytox Orange, 30 mg/ml Glucose Oxidase (15 U/ml), 20 mg/ml Catalase (1000 U/ml)). The imaging buffer supplied with used condensin I variant was introduced into the channel at a flow rate of 10 µl/min for 100 s and the flow was stopped afterward. For the activity assay comparing condensin I WT and condensin I ΔNCAPG 1 nM of protein, for the activity assay comparing condensin I WT and condensin I WT supplied with KIF4A peptide 0.5 nM of protein and 1000× of the KIF4A peptide, for the analysis of loop extrusion rate 0.75 nM–3 nM of protein (in the case of condensin I WT supplied with KIF4A peptide, correspondingly 1000× of KIF4A peptide) was used.
Region of interests (ROIs) containing a single Lambda DNA molecule were chosen manually and annotated using the tools provided by the Python package Napari. For a single loop extrusion experiment, a field of contains ~100–200 DNA strands. Only the strands that were tethered at both ends from the beginning to the end of the data acquisition were considered for the analysis. Each of the DNA strands were manually analysed whether they form at least one loop during an acquisition time of 1000 s, including the initial 100 s of flow. The “fraction of looped DNA” (Fig. 4B,C) was defined as the ratio of the number of the DNA strands which form at least one loop to the total number of DNA strands. This quantity was taken as a measure for the activity of the protein. […] (For 1 nM condensin I WT 4, for 1 nM condensin I ΔNCAPG 10, for 0.5 nM condensin I WT 3, For 0.5 nM condensin I WT supplied with 0.5 µM KIF4A three independent experiments were performed and analysed.) The error bars in the Fig. 4 are given by the standard deviation of these datasets. […]

5-FAM-FPQNDDEKERLQRRRSRVFDLQF ({5‑FAM}-FPQNDDEKERLQRRRSRVFDLQF) [5-FAM-NCAPH55–77, 5-FAM labelled peptide of NCAPH residues 55-77]
binding to NCAPG (NCAPG [1]): low affinity
FP signal without competitor (CI NdelH, D2delC): 37 ± 7 mP
FP signal without competitor (CI NdelH, D2delC; listed as NCAPH peptide): ~ 35 mP

CC[C@H](C)[C@H](NC(=O)[C@@H]1CCCN1C(=O)[C@H](CO)NC(=O)[C@H](CS)NC(=O)CNC(=O)[C@H](CO)NC(=O)[C@H](Cc1ccccc1)NC(=O)[C@H](Cc1ccccc1)NC(=O)[C@H](CO)NC(=O)[C@@H](NC(=O)[C@H](CC(N)=O)NC(=O)[C@H](CO)NC(=O)[C@H](C)NC(=O)[C@H](CC(C)C)NC(=O)[C@H](C)NC(=O)[C@H](CCCNC(=N)N)NC(=O)[C@H](CCCCN)NC(=O)[C@H](CCCCN)NC(=O)[C@H](CCCCN)NC(=O)[C@H](CCCCN)NC(=O)CNC(=O)[C@@H]1CCCN1C(=O)c1ccc2c(c1)C(=O)OC21c2ccc(O)cc2Oc2cc(O)ccc21)[C@@H](C)O)C(=O)N[C@@H](CCC(=O)O)C(=O)O [5-FAM-KIF4A1206–1228] (5FAM-PGKKKKRALASNTSFFSGCSPIE-OH)
Kd [2]: 2800 ± 200 nM

KIF4Amut peptide (PGKKAAAAGAAATSFFSGCSPIE)
Fit rates (condensin I [3]; CI D2delC + peptide, replicate 1): 10.29 ATPase per molecule, per minute
Fit rates (condensin I [3]; CI D2delC + peptide, replicate 2): 11.11 ATPase per molecule, per minute
Fit rates (condensin I [3]; CI D2delC + peptide, replicate 3): 10.2 ATPase per molecule, per minute
Fit rates (condensin I [3]; CI D2delC + peptide, replicate 4): 15.62 ATPase per molecule, per minute
Fit rates (condensin I [3]; CI D2delC + peptide, replicate 5): 27.72 ATPase per molecule, per minute
Fit rates (condensin I [3]; CI NdelH + peptide, replicate 1): 29.41 ATPase per molecule, per minute
Fit rates (condensin I [3]; CI NdelH + peptide, replicate 2): 35.68 ATPase per molecule, per minute
Fit rates (condensin I [3]; CI NdelH + peptide, replicate 3): 31.03 ATPase per molecule, per minute
Fit rates (condensin I [3]; CI NdelH D2delC + peptide, replicate 1): 28.18 ATPase per molecule, per minute
Fit rates (condensin I [3]; CI NdelH D2delC + peptide, replicate 2): 29.84 ATPase per molecule, per minute
Fit rates (condensin I [3]; CI NdelH D2delC + peptide, replicate 3): 39.65 ATPase per molecule, per minute
Fit rates (condensin I [3]; CIWT + peptide, replicate 1): 10.26 ATPase per molecule, per minute
Fit rates (condensin I [3]; CIWT + peptide, replicate 2): 7.215 ATPase per molecule, per minute
Fit rates (condensin I [3]; CIWT + peptide, replicate 3): 8.551 ATPase per molecule, per minute
Fit rates (condensin I [3]; CIWT + peptide, replicate 4): 10.06 ATPase per molecule, per minute
Fit rates (condensin I [3]; CIWT + peptide, replicate 5): 14.77 ATPase per molecule, per minute
Fit rates (condensin I [3]; CIWT + peptide, replicate 6): 10.26 ATPase per molecule, per minute

PGKKAAAAGAAATSFFSGCSPIE [KIF4A mut]
effect of peptide on ATPase activity of CI (condensin I [3]; 50 μM peptide, 3 repeats): no increase in activity
FP signal on addition of competing peptide (NCAPG [4]): not significantly changed

PGKKKKRALASNTSFFSGCSPIE [KIF4A1206-1228, KIF4A SLiM peptide, residues 1206-1228, unlabelled]
loop extrusion rate compared to CIWT (condensin I [5]): no significant difference
FP signal on addition of competing peptide (CI NdelH, D2delC; 100 μM competing peptide, listed as KIF4a peptide): ~ 20 mP
effect of peptide on ATPase activity of CI (condensin I [3]; 50 μM peptide, 3 repeats): small but significant increase
effect of peptide on ATPase rate of CINΔH (condensin I [3]; 50 nM CINΔH, 50 μM peptide, 3 repeats): no additional stimulation
effect of peptide on ATPase rate of CINΔH,D3ΔC (condensin I [3]; 50 nM CINΔH,D3ΔC, 50 μM peptide, 3 repeats): no additional stimulation
fraction of looped DNA (condensin I [6]; experiment 1): 0.9481
fraction of looped DNA (condensin I [6]; experiment 2): 1
fraction of looped DNA (condensin I [6]; experiment 3): 0.9388
tethers having DNA loops (condensin I [6]; 0.5 nM condensin I, with or without 0.5 μM KIF4A1206-1228 peptide, 1000 s acquisition, mean of n = 3 experiments): ~ 96%
